Test results as given in PMC5319746, “Phospholipid binding to the FAK catalytic domain impacts function” (PLoS ONE, 2017).
Read-outs that look alike come from different tables or passages of the source.

Assays:
[1] = target: T1, wild type avian FAK catalytic domain (GST fusion protein) (Gallus gallus, UniProt Q00944); experiment: Fluorescence anisotropy binding of BODIPY-labeled C6 phosphoinositides to wild type catalytic domain; conditions: for Binding to wild type catalytic domain compared with the PI control (ANOVA, Tukey's posttest): anisotropy at 100 and 200 μM protein
T1 construct: the catalytic domain of FAK was expressed as a GST fusion protein; made in house; host or cells: Escherichia coli BL21 (Codon Plus)
Method: (§1) For anisotropy experiments purified GST fusion proteins were incubated with BODIPY (dipyrromethene boron difluoride)-labeled phosphoinosotides with C6-acyl chains (Echelon). Increasing concentrations of purified protein were added to 12.5 nM fluorescent phosphoinositide in buffer containing 20 mM HEPES [pH7.5], 150 mM NaCl, and 5 mM β-mercaptoethanol. Anisotropy measurements were taken at 37°C using a Flourlog spectroflourometer equipped with Glan-Thompson polarizers with FluorEssence software (HORIBA Jobin Yvon). Specific binding of the catalytic domain was determined by subtraction of binding of GST alone. Binding curves and dissociation constants were determined using the Prism 5.0 statistical analysis software (GraphPad).
(§2) PI(4,5)P2 binding was further validated using fluorescence anisotropy. GST and the GST catalytic domain of FAK were incubated with BODIPY-TMR labeled short acyl chain (C6) PI or PI(4,5)P2 and anisotropy measured.
To test the specificity of the lipid interaction, the binding of wild type and RK5A GST-fusion proteins to phosphatidylinositol, PI(4)P, PI(4,5)P2, and PI(3,4,5)P3 was analyzed. Purified GST catalytic domain fusion proteins were titrated into a solution of BODIPY-labeled phospholipids with C6-acyl chains, and anisotropy was measured. Phosphatidylinositol with C6-acyl chains and purified GST were used as controls. Differences in anisotropy of each BODIPY-labeled phospholipid at 100 and 200 μM of each protein were compared by ANOVA and a Tukey’s posttest (S1 Table). […] To calculate binding affinities, anisotropy was plotted against protein concentration and binding to GST was subtracted as background binding. […] To determine if the observed interaction with the short acyl chain PI(4,5)P2 required the basic residues implicated in binding to PI(4,5)P2-containing vesicles, the RK5A mutant was analyzed.

[2] = target: T2, FAK catalytic domain R508A/K621A mutant (GST fusion protein) (Gallus gallus, UniProt Q00944, K621A/R508A); conditions: BODIPY-labeled C6 lipid, Fig 7, read-out: Kd for binding (specific binding, GST subtracted)
T2 construct: mutations were engineered into the GST-catalytic domain construct; made in house; host or cells: Escherichia coli BL21 (Codon Plus)
Text: (§3) Short acyl chain (C6) BODIPY labeled PI(4,5)P2, was chosen to assess the ability of these mutants to bind phospholipids using fluorescence anisotropy.

[3] = target: T3, FAK catalytic domain RK5A mutant (GST fusion protein) (Gallus gallus, UniProt Q00944, K515A/K621A/K627A/R508A/R514A); experiment: Fluorescence anisotropy binding of BODIPY-labeled C6 phosphoinositides to RK5A mutant; set-up: species or system avian
T3 construct: This GST mutant catalytic domain fusion protein was found in the supernatant; made in house; host or cells: Escherichia coli BL21 (Codon Plus)
Method: as §1, §2
To test the specificity of the lipid interaction, the binding of wild type and RK5A GST-fusion proteins to phosphatidylinositol, PI(4)P, PI(4,5)P2, and PI(3,4,5)P3 was analyzed. Purified GST catalytic domain fusion proteins were titrated into a solution of BODIPY-labeled phospholipids with C6-acyl chains, and anisotropy was measured. Phosphatidylinositol with C6-acyl chains and purified GST were used as controls. […]

[4] = target: T4, FAK catalytic domain R508A/R514A/K515A mutant (GST fusion protein) (Gallus gallus, UniProt Q00944, K515A/R508A/R514A); conditions: BODIPY-labeled C6 lipid, Fig 7, read-out: Kd for binding (specific binding, GST subtracted)
T4 construct: mutations were engineered into the GST-catalytic domain construct; made in house; host or cells: Escherichia coli BL21 (Codon Plus)
Text: as §3

[5] = target: T5, FAK catalytic domain K621A/K627A mutant (GST fusion protein) (Gallus gallus, UniProt Q00944, K621A/K627A); conditions: BODIPY-labeled C6 lipid, Fig 7, read-out: Kd for binding (specific binding, GST subtracted)
T5 construct: mutations were engineered into the GST-catalytic domain construct; made in house; host or cells: Escherichia coli BL21 (Codon Plus)
Text: as §3

[6] = wild type catalytic domain, lipid specificity experiment, Fig 8B, read-out: Kd of the wild type catalytic domain for each phosphatidylinositol phosphate

T1 sequence (Q00944 422-680 limits assumed): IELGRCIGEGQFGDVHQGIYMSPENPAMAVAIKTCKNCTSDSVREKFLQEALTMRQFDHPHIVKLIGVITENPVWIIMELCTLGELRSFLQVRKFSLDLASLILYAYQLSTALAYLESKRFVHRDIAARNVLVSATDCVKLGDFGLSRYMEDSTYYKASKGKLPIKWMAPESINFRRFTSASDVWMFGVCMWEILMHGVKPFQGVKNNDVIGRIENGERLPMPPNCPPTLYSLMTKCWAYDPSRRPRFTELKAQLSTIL
T3 sequence (Q00944 422-680 R508A/R514A/K515A/K621A/K627A limits assumed): as the sequence (Q00944 422-680 limits assumed) above, with R87A, R93A, K94A, K200A, K206A counted along it
T2 sequence (Q00944 422-680 R508A/K621A limits assumed): as the sequence (Q00944 422-680 limits assumed) above, with R87A, K200A counted along it
T5 sequence (Q00944 422-680 K621A/K627A limits assumed): as the sequence (Q00944 422-680 limits assumed) above, with K200A, K206A counted along it
T4 sequence (Q00944 422-680 R508A/R514A/K515A limits assumed): as the sequence (Q00944 422-680 limits assumed) above, with R87A, R93A, K94A counted along it

PI(3,4,5)P3 was tested, and the “Binding to wild type catalytic domain compared with the PI control (ANOVA, Tukey's posttest)” value [1] was “significant” and the Kd [1, 6] was 16 ± 9.2 µM.
PI(4)P was tested, and the “Binding to wild type catalytic domain compared with the PI control (ANOVA, Tukey's posttest)” value [1] was “approached, but did not reach significance” and the Kd [1, 6] was 11.7 ± 13.7 µM.
For “Phosphatidylinositol-4,5-bisphosphate [PI(4,5)P2]”, the “Binding to wild type catalytic domain compared with the PI control (ANOVA, Tukey's posttest)” value [1] was “significant”, the Kd ([1]; wild type catalytic domain, BODIPY-labeled C6 lipid 12.5 nM, 37°C, Fig 7 experiment, read-out: Kd for binding (specific binding, GST subtracted)) was 15.7 ± 6.5 µM and the Kd [1, 6] was 12.9 ± 2.3 µM. For the same substance, the Kd [2] was over 200 µM, the Kd ([3]; BODIPY-labeled C6 lipid, Fig 7 experiment, read-out: Kd for binding (specific binding, GST subtracted)) was over 200 µM and the “Specific binding (in words)” value ([3]; anisotropy, GST subtracted) was “no specific binding”. The Kd [4] was 16.4 ± 3.2 µM and the Kd [5] was 20.8 ± 2.7 µM.
For phosphatidylinositol [PI], the “Specific binding (in words)” value ([1]; wild type catalytic domain, anisotropy, GST subtracted) was “did not specifically bind” and the Kd [1, 6] was over 200 µM.
